Experimental findings from patent US8039670B2, “Analogs of alpha galactosyceramide and uses thereof” (Ludwig Institute for Cancer Research, priority 2005, dated 2011) are described below.

Molecules are shown by their SMILES.

For assay [1], the system named is human DC. In words: DC maturation in co-culture of human DC and iNKT cells (flow cytometry CD83, CD86, CD38). The class given is cell-based. The procedure: (§1) Different analogs of α-GalCer as indicated or LPS were added to co-cultures of human DC and iNKT cells. (A) Maturation of the DC was assessed after 40 h, gating on CD11c positive cells. Histograms indicate the CD83 and CD86 profiles of DC from different treatments; the percentages indicate the percentage of CD83hi mature DC and the numbers in parenthesis, the mean fluorescence intensity of the population contained within the labeled gate. DC and iNKT cells were co-cultured in the presence of different analogs of α-GalCer for 24 hours. Supernatants were analyzed using ELISA for the presence of (B) IL-12p40 released by the DC and (C) IFN-γ from the iNKT cells. […] Cells were co-cultured in the presence of the indicated concentration of analog and the percentages of DC with increased CD83/CD80 are shown. […] Viability of α-GalCer or analog-pulsed DC was assessed after 40 h co-culture in the presence of iNKT cells by flow cytometry. Cells were stained with propidium iodide and the percentage of live CD11c gated cells remaining in the culture are shown.
(§2) Human monocyte-derived DC were pulsed with 150 ng of different inositol analogs and co-cultured with iNKT cells for 24 h. […] Numbers indicate the mean fluorescence intensity of the histogram gated on CD11c^+ cells.
Immature human DC were cultured in the presence of a human iNKT cell clone with or without analogs or vehicle at different concentrations.
(§3) To compare the functions of high affinity α-GalCer, intermediate affinity threitolceramide with the known, low affinity analog OCH, the three compounds were titrated onto DC and used to present to iNKT cells. Maturation of DC and DC viability were examined after 48 h.
For orientation: A flow cytometer gives signals particle by particle.

Assay [2] has as its system IL-12p40 released by the DC. In words: IL-12p40 ELISA of supernatants of DC/iNKT co-cultures. The assay is classed as cell-based, human. Conditions: DC/iNKT co-culture, 24 hours. The procedure: as §1, §2
Release of IL-12p40 (and bioactive p75) by DC is a marker of activation and is thought to play an important role in regulating the profile of the immune response generated in response to those DC (Trinchieri et al, Nat Rev Immunol, 2003, 3; 133-46).
Background: ELISA stands for enzyme-linked immunosorbent assay.

The subject of assay [3] is IFN-γ from the iNKT cells. Nature of the assay: IFN-γ ELISA of supernatants of DC/iNKT co-cultures. The class given is cell-based, human. Conditions: analogs presented by DC. As for the experimental part:
as §1, §2

In assay [4] the test system is IL-4 and IFN-γ. In words: Serum cytokines after i.v. injection into mice (ELISA). The class given is in vivo, C57BL/6 mice. As for the experimental part: C57BL/6 or iNKT^−/− mice were injected i.v. with 1 μg of vehicle, α-GalCer, analog or 25 μg MPL. Twenty hours after injection splenocytes were stained with antibodies against CD11c, B220 and CD86 and analyzed by flow cytometry. (A) Maturation was assessed by the upregulation of CD86 at the cell surface, gating on DC (CD11c^+). Mean fluorescence intensity for each histogram is indicated. These are representative profiles of two independent experiments. 2, 6 and 18-24 h after injection as described, the mice were bled and the serum tested with ELISA for the presence of (B) IL-4 and (C) IFN-γ released in response to the analog.
Stimulation of iNKT cells by α-GalCer in the context of CD1d rapidly induces release of significant levels of a number of cytokines including IFN-γ and IL-4 (Burdin, Brossay et al, J Immunol, 1998, 161; 3271-81), IL-3 and GM-CSF (Leite-de-Moraes, Lisbonne et al, Eur J Immunol, 2002, 32; 1897-904) with other downstream cell-types including DC (Kitamura, Iwakabe et al, J Exp Med, 1999, 189; 1121-8) and NK cells (Carnaud, Lee et al, J Immunol, 1999, 163; 4647-50) being activated.

The test system of assay [5] is antigen-specific CD8^+ T cells. Nature of the assay: OVA-specific CD8+ T cells after co-injection with OVA ([…]-Kb tetramer). The class given is in vivo, C57BL/6 mice. Conditions: 1 μg with 800 μg OVA, 6 days. The procedure:
(§4) (A) C57BL/6 mice were co-injected with 1 μg α-GalCer or analog and 800 μg OVA. 6 days later blood samples taken from the tail vein were stained directly ex vivo with fluorescent […]-K^b tetramers and an anti-CD8 antibody and analyzed by flow cytometry. Data are shown as tetramer positive cells as a percentage of CD8^+ cells. (B) 7 days after injection, the mice were challenged in a prophylactic setting with 1×10^6 E.G7-OVA tumour cells s.c. and the size of the tumour monitored over subsequent days.
Previously we, and others have shown that co-injection of model antigens such as OVA (Silk, Hermans et al, J Clin Invest, 2004, 114; 1800-11, Fujii, Shimizu et al, J Exp Med, 2003, 198; 267-79, Hermans, Silk et al, J Immunol, 2003, 171; 5140-7) and β-galactosidase (Silk, Hermans et al, J Clin Invest, 2004, 114; 1800-11) together with α-GalCer induces enhanced CD8^+, CD4^+ T cell and B cell responses. These were effective for therapy against tumour cells expressing the target antigen. The various analogs were co-injected with OVA into wild type mice and 6 days later the blood examined for the presence of antigen-specific CD8^+ T cells using fluorescent K^b-[…] tetramers.

Assay [6] has as its system E.G7-OVA tumour cells. In words: Prophylactic challenge with E.G7-OVA tumour cells after co-injection with OVA. The assay is classed as in vivo, C57BL/6 mice. The conditions noted are these: injected with OVA, challenge 7 days later with 1×10^6 E.G7-OVA s.c. As for the experimental part: as §4
The subject of assay [7] is human monocyte derived DCs. Nature of the assay: Example A: DC maturation markers in human monocyte derived DC with NKT cells (FACS). The class given is cell-based. Conditions: 100 ng/ml, 36 hours, 10 DC/NKT cell. As for the experimental part: The methodology of Salio, et al., J. Immunol., 167:1188-1197 (2001), incorporated by reference, was followed. In brief, 2×105 human monocyte derived DCs were pulsed with 100 ng/ml of one of Compounds 2, 3, αGal-Cer, or vehicle solution, as a control. For DC pulsing, each of arabinitol ceramide (Compound 1), threitol ceramide (Compound 3), glycerol ceramide (Compound 2) and αGal-Cer was solubilized in vehicle solution (0.5% Tween 20/PBS), and added to the medium of the DC cultures. […] After 36 hours, supernatant was removed from cultures and analyzed for the presence of known DC maturation markers CD83, CD80, CD86, CD25, and CD38, all of which were analyzed via FACS, using well known methods.

The test system of assay [8] is p40 form of IL-12. Nature of the assay: Example A: IL-12 p40 ELISA as indication of DC stimulation. The class given is cell-based, human.
Assay [9] deals with OVA specific response. Nature of the assay: Example C: OVA specific CTL response in mice injected with OVA and compound (tetramer). The conditions noted are these: 400 μg OVA with 1 μg compound i.v. The assay is classed as in vivo. The procedure: Subject animals, five mice per group, received an intravenous injection of 400 μg of ovalbumin (OVA) together with 1 μg of one of the compounds of the invention under examination or an equivalent volume of PBS diluted vehicle solution. A subset of mice were injected with 25 μg of the molecule MPL (Sigma-Aldrich; extracted from Salmonella Minnesota) solubilized in PBS.
Following the injections, blood was obtained from lateral tail veins, and PBLs were isolated, using standard methods. The PBLs were then stained, directly, […], with tetrameric, H-2 Kb/OVA 257-264, H-21 Kb complexes, following Palmowski, et al., J. Immunol., 168:4391-4398 (2002), incorporated by reference. The tetramers were prepared in accordance with Whilan, et al., J. Immunol., 163:4342-4348 (1999), incorporated by reference.

The subject of assay [10] is OVA specific IgG antibodies. In words: Example D: OVA specific IgG antibodies in serum of immunized mice (ELISA). The assay is classed as in vivo. Conditions: ten days following immunization. As for the experimental part: OVA protein coated ELISA plates, were prepared, using well known methods. Then, blood samples were taken, ten days following immunization, and serum was prepared.
The samples were taken from mice that had been immunized with OVA only, OVA and Compound 1, arabinitol ceramide, OVA and αGal-Cer, or OVA and Compound 2, glycerol ceramide. Additionally, mice were immunized with each of these schedules with MPL added. Serum IgG titers were measured by adding serial dilutions of mouse serum were detected using horseradish peroxidase (HRP) conjugated α-mouse IgG.

Assay [11] concerns DCs obtained from the spleen. In words: Example E: phenotyping of spleen DCs after tail vein injection (CD86). The class given is in vivo, mice. The conditions noted are these: 1 μg tail vein, 24 h. As for the experimental part: In brief, in each experiment, 1 μg of one of a selection of compounds of the invention was injected into the tail vein of subject mice. 24 h later spleen tissue was removed from the animals and gently teased through gauze into complete medium, supplemented with 5 mM of EDTA. Cells were enriched for CD11c by anti-CD11, magnetic beads using published techniques. Once enriched, they were assayed for maturation markers using antibody staining and flow cytometry. Non-specific staining was addressed by using an antibody specific for the Fc-RIII/II receptor.

In assay [12] the target is T1, human CD1d molecules (Homo sapiens, UniProt P15813).
T1 construct: soluble human CD1d molecules; biotin (biotinylated); made in house
In words: Dissociation of ligand from hCD1d, surface plasmon resonance with 9B Fab. The assay is classed as binding. The conditions noted are these: fold faster than α-GalCer. The source says:
FIG. 1 Comparison of dissociation rate of OCH and α-GalCer. Dissociation of ligand from hCD1d. The indicated hCD1d (α-Gal Cer or OCH) complex was loaded onto a Surface Plasmon resonance (Biacore) sensor surface at t=0 and the amount of hCD1d remaining at the indicated time point measured using the Fab 9B.
Using the 9B Fab we looked at the rate of dissociation of all the tested compounds from soluble human CD1d molecules using surface plasmon resonance. Biotinylated CD1d-lipid complexes were immobilized to streptavidin-coated chips and the level of binding of the 9B Fab was measured over time. The loss of binding of the antibody over time was used to determine the rate of lipid dissociation from CD1d molecules.

Assay [13] concerns DC. Nature of the assay: Viability of analog-pulsed DC co-cultured with iNKT cells (propidium iodide). The class given is cell-based, human. Conditions: at concentration of maximal DC maturation. The procedure:
Different analogs of α-GalCer as indicated or LPS were added to co-cultures of human DC and iNKT cells. (A) Maturation of the DC was assessed after 40 h, gating on CD11c positive cells. Histograms indicate the CD83 and CD86 profiles of DC from different treatments; the percentages indicate the percentage of CD83hi mature DC and the numbers in parenthesis, the mean fluorescence intensity of the population contained within the labeled gate. DC and iNKT cells were co-cultured in the presence of different analogs of α-GalCer for 24 hours. Supernatants were analyzed using ELISA for the presence of (B) IL-12p40 released by the DC and (C) IFN-γ from the iNKT cells. All the compounds tested induced weaker but significant cytokine production than α-GalCer, with the exception of arabinitolceramide. (D) Titration of α-GalCer, OCH or threitolceramide on DCs and co-culture with iNKT cells induces DC maturation in vitro. Cells were co-cultured in the presence of the indicated concentration of analog and the percentages of DC with increased CD83/CD80 are shown. […] Viability of α-GalCer or analog-pulsed DC was assessed after 40 h co-culture in the presence of iNKT cells by flow cytometry. Cells were stained with propidium iodide and the percentage of live CD11c gated cells remaining in the culture are shown.
as §3

T1 sequence (P15813 20-301 limits assumed): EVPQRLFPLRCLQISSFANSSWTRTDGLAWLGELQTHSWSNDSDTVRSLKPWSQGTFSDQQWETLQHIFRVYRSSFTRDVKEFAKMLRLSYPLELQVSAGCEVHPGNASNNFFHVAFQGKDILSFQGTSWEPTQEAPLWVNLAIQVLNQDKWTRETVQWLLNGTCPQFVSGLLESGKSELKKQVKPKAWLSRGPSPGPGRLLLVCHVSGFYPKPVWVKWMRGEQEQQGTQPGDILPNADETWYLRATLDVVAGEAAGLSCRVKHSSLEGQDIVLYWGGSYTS
T1 sequence (P61769 21-119 partner): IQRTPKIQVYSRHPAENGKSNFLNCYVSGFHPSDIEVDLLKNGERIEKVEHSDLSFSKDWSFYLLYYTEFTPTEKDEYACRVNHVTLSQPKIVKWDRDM

For `CCCCCCCCCCCCCCCCCCCCCCCCCC(=O)N[C@@H](COCC(O)[C@@H](O)[C@@H](O)CO)[C@H](O)C(O)CCCCCCCCCCCCCC` (stereo partly shown) [Compound 1, Arabinitol Ceramide], the “DC maturation (upregulation of CD83, CD86 and CD38)” value in assay [1] (human DC with iNKT cell clone, 24 hours) is “only weakly functional”. Moreover, the IL-12p40 released entry in assay [2] was “little IL-12p40 was detected”. Further, the “IFN-γ released by the iNKT cells” value in assay [3] is “no detectable IFNγ”. In addition, the “skewing of cytokine response to Th2” value in assay [4] (compared with OCH) was “Neither compound showed a skewed Th2 cytokine response”. In addition, the “potency of cytokine induction compared with α-GalCer” value in assay [4] (equivalent doses) is recorded as “less potent than α-GalCer at equivalent doses”. Besides, the “cytokine release in serum (IL-4, IFN-γ, IL-12p40/70)” value in [4] (wild type mice, 1 μg i.v., 2, 6 and 18-24 h) is listed as “detected in the serum with a similar time-course to that seen with α-GalCer”. Further, in assay [5], the “antigen-specific CD8+ T cell response” value was “induced a significant CD8^+ T cell response after 6 days, although less potently than α-GalCer”. For the same compound, the tumour growth result in assay [6] is “little or no tumour growth”. Moreover, the “induction of DC maturation markers (CD83, CD80, CD86, CD25, CD38)” value in assay [7] is recorded as “DC maturation markers are induced”. For the same compound, the “IL-12 potency, fold less potent than Compound 3” value in assay [8] is “approximately 1000 fold”. Besides, the OVA specific response result in assay [9] is listed as “enhancement of the OVA specific response”. For the same compound, in assay [10], the “OVA specific antibody response, adjuvant effect compared with MPL” value is recorded as “more effective as adjuvants than MPL”. Moreover, in assay [11], the “induction of CD86 on spleen DC in vivo” value is listed as “induced CD86 in vivo similarly”.

In the case of `CCCCCCCCCCCCCCCCCCCCCCCC(=O)N[C@@H](CO[C@H]1O[C@H](CO)[C@H](O)[C@H](O)[C@H]1O)[C@H](O)[C@H](O)CCCCC` [OCH, (2S,3S,4R)-1-O-(α-D-galactopyranosyl)-N-tetracosanoyl-2-amino-1,3,4-nonanetriol], the “rate of dissociation from hCD1d relative to α-GalCer” value in [12] is listed as 3.9 fold. For the same compound, the “concentration inducing maximal DC maturation” value in [1] (titration on DC, 48 h) is 67 ng/mL. Further, the “DC viability (propidium iodide negative) compared with α-GalCer” value in [13] is listed as “significantly greater proportion of DC were propidium iodide negative”.
